Test results as given in patent US10835456B2, “Propyl gallate-containing vitamin preparations” (BASF SE, priority 2016, dated 2020).
Values joined by “and” are separate entries in the source; they are usually repeats but may differ in a detail not shown here. Identical values can stand only once.

What was measured:
Type in all cases: physicochemical
[1] = Stress test: stability in premix mixture, stored at 40° C. and 70% humidity for 4 weeks, retention of vitamin content; conditions: for Retention Active ingredient content after 4-week premix test: Table 3b
Description: The stress test for the vitamins is configured such that specimens of 100 mg in each case of the formulation produced and 4 g of premix mixture are weighed into glass vessels. The premix mixture consists of 50% by weight of fine lime (particle size <1000 μm), 20% by weight of wheat bran (particle size <1000 μm), 20% by weight of 50% silica-supported choline chloride (particle size <1000 μm) and 10% by weight of trace element mixture (particle size 100-500 μm). The trace element mixture is composed of 46.78% by weight of FeSO4x7H2O (100-500 μm), 37.43% by weight of CuSO4x5H2O (100-500 μm), 11.79% by weight of ZnO (<500 μm), 3.61% by weight of MnO and 0.39% by weight of CoCO3. After addition of all ingredients, the specimens are mixed cautiously, with performance of the mixing mechanically or else by hand, and these specimens (A) are stored in a climate-controlled chamber at 40° C. and 70% humidity for 4 weeks. […]
For this purpose, specimens each of 100 mg of the formulation produced and 4 g of premix mixture are weighed out in glass vessels (50 mL glass vials). The premix mixture consists of 50% by weight of fine lime (particle size <1000 μm), 20% by weight of wheat bran (particle size <1000 μm), 20% by weight of 50% silica-supported choline chloride (particle size <1000 μm) and 10% by weight of trace element mixture (particle size 100-500 μm), said trace element mixture consisting of 46.78% by weight of FeSO4x7H2O (100-500 μm), 37.43% by weight of CuSO4x5H2O (100-500 μm), 11.79% by weight of ZnO (<500 μm), 3.61% by weight of MnO and 0.39% by weight of CoCO3. After addition of all ingredients, the specimens are mixed cautiously, where the mixing can be performed mechanically or else by hand, and these specimens (A) are stored in a climate-controlled chamber at 40° C. and 70% humidity for 4 weeks. An identical test is conducted with a comparative sample (B) which is of identical composition but which comprises, rather than propyl gallate, the same amount of ethoxyquin. […] The ratio of the contents after (A2), (B2) and before the storage (A1) and (B1) are used here to calculate the retention (A2/A1) or (B2/B1) of the samples. For the formulations of the invention, a quotient (A2/A1):(B2/B1) of at least 0.75 is determined here. Preferably, for the formulations of the invention, a quotient of at least 1 is obtained.
The stability of the particles thus produced was tested in a stress test. For this purpose, specimens each of 100 mg of the particles produced and 4 g of premix mixture were weighed into 50 mL glass bottles. The premix mixture consisted of 50% by weight of fine lime (particle size <1000 μm), 20% by weight of wheat bran (particle size <1000 μm), 20% by weight of 50% silica-supported choline chloride (particle size <1000 μm) and 10% by weight of trace element mixture (particle size 100-500 μm), and the trace element mixture of 46.78% by weight of FeSO4x7H2O (100-500 μm), 37.43% by weight of CuSO4x5H2O (100-500 μm), 11.79% by weight of ZnO (<500 μm), 3.61% by weight of MnO and 0.39% by weight of CoCO3. After addition of all ingredients, the specimens were carefully mixed by hand. These specimens were stored in a climate-controlled chamber at 40° C. and 70% air humidity for 4 weeks. […]

[2] = Particle size after dissolution in water by photon correlation spectroscopy (Malvern Zetasizer Nano ZSP); conditions: PCS; for particle size / polydispersity index PDI: dry powder with propyl gallate added to the dispersion (Examples 1, 3b, 3c, 3d)
Description: The particle size is determined by means of a Malvern Zetasizer Nano ZSP.
30 g of citranaxanthin were suspended in 240 g of isopropanol together with 1.1 g of ascorbyl palmitate and, with setting of the pressure-limiting valve to 30 bar, mixed continuously with 390 g of isopropanol in a mixing chamber A. At a metering rate of 6 L/h on the suspension side and of 9 L/h on the solvent side, a mixing temperature of 170° C. was established in the mixing chamber A. After a residence time of 0.3 second, the molecularly disperse solution was mixed in mixing chamber B with a solution of 32 g of gelatin, 71.4 g of sucrose and 50 g of glucose syrup in 4000 g of water at a throughput rate of 100 L/h. After the solvent had been removed under reduced pressure in a distillation apparatus, an active ingredient dispersion was obtained, to which 8 g of sunflower oil and 8 g of propyl gallate were added. The propyl gallate was predissolved here in 200 mL of water and adjusted to pH 7 with NaOH. Subsequently, the dispersion was converted to a stable, water-soluble dry powder by spray drying. After dissolution in water, by photon correlation spectroscopy (PCS), a particle size of 386 nm (standard deviation 142.5, polydispersity index PDI 0.185, D(95): 660 nm) was measured (Malvern Zetasizer Nano ZSP).

[3] = as above; conditions: PCS
[4] = Table 4b, D,L-α tocopherol 4% by wt. (in active ingredient phase) + propyl gallate 4% by wt. (in protective colloid phase)
[5] = Table 4b, mixed tocopherol 4% by wt. (in active ingredient phase) + propyl gallate 4% by wt. (in protective colloid phase)
[6] = dry powder with 4% by weight of propyl gallate and 4% by weight of butylhydroxytoluene
[7] = dry powder with 4% by weight of propyl gallate and 4% by weight of mixed tocopherol

## CC1=C(/C=C/C(C)=C/C=C/C(C)=C/C=C/C=C(C)/C=C/C=C(C)/C=C/C2=C(C)C(=O)CCC2(C)C)C(C)(C)CCC1=O [Canthaxanthin]
[1]; propyl gallate 4%, dispersion
  Retention Active ingredient content after 4-week premix test: 61.2%
[1]; propyl gallate 6%, dispersion
  Retention Active ingredient content after 4-week premix test: 77.9%
[1]; propyl gallate 8%, dispersion
  Retention Active ingredient content after 4-week premix test: 83.3%
[1]; propyl gallate 9%, dispersion
  Retention Active ingredient content after 4-week premix test: 82.4%
[1]; propyl gallate 10%, dispersion
  Retention Active ingredient content after 4-week premix test: 69.8%
[1]; propyl gallate 12%, dispersion
  Retention Active ingredient content after 4-week premix test: 47.2%
[1]; Table 4a, D,L-α tocopherol 4% by wt., active ingredient phase
  Retention Active ingredient content after 4-week test: 45.7%
[1]; Table 4a, mixed tocopherol 4% by wt., active ingredient phase
  Retention Active ingredient content after 4-week test: 48.7%
[1]; [4]
  Retention Active ingredient content after 4-week test: 57.2%
[1]; [5]
  Retention Active ingredient content after 4-week test: 78.1%
[1]; Table 5a, propyl gallate 0% by wt., mixed tocopherol 4% by wt.
  Retention Canthaxanthin after 4-week test: 48.7%
[1]; Table 5a, propyl gallate 4% by wt., mixed tocopherol 0% by wt.
  Retention Canthaxanthin after 4-week test: 61.2%
[1]; Table 5a, propyl gallate 4% by wt., mixed tocopherol 2% by wt.
  Retention Canthaxanthin after 4-week test: 80.8%
[1]; Table 5a, propyl gallate 4% by wt., mixed tocopherol 4% by wt.
  Retention Canthaxanthin after 4-week test: 80.3%
[1]; Table 5a, propyl gallate 6% by wt., mixed tocopherol 0% by wt.
  Retention Canthaxanthin after 4-week test: 71.3%
[1]; Table 5a, propyl gallate 8% by wt., mixed tocopherol 0% by wt.
  Retention Canthaxanthin after 4-week test: 83.3%
[1]; Table 5b, propyl gallate 4% by wt. (in protective colloid phase pH 7), mixed tocopherol 1% by wt. (in active ingredient phase)
  Retention Canthaxanthin after 4-week test: 72.8%
[1]; Table 5b, propyl gallate 4% by wt. (in protective colloid phase pH 7), mixed tocopherol 2% by wt. (in active ingredient phase)
  Retention Canthaxanthin after 4-week test: 76%
[1]; Table 5b, propyl gallate 4% by wt. (in protective colloid phase pH 7), mixed tocopherol 4% by wt. (in active ingredient phase)
  Retention Canthaxanthin after 4-week test: 80.6%
[2]; dry powder with propyl gallate added to the dispersion (Examples 1, 3b)
  D(95): 594 nm
[2]
  particle size: 290 nm
  polydispersity index PDI: 0.193

## CC(=O)/C=C/C(C)=C/C=C/C(C)=C/C=C/C=C(C)/C=C/C=C(C)/C=C/C1=C(C)CCCC1(C)C [Citranaxanthin]
[1]; Table 3a, propyl gallate 0% by wt., dispersion
  Retention Active ingredient content after 4-week test: 7.9%
[1]; Table 3a, propyl gallate 2% by wt., dispersion
  Retention Active ingredient content after 4-week test: 20.2%
[1]; Table 3a, propyl gallate 3% by wt., dispersion
  Retention Active ingredient content after 4-week test: 26.7%
[1]; Table 3a, propyl gallate 4% by wt., dispersion
  Retention Active ingredient content after 4-week test: 47.8%
[1]; Table 3a, propyl gallate 5% by wt., dispersion
  Retention Active ingredient content after 4-week test: 45.7%
[1]; Table 3a, propyl gallate 6% by wt., dispersion
  Retention Active ingredient content after 4-week test: 45.9%
[1]; Table 3a, propyl gallate 7% by wt., dispersion
  Retention Active ingredient content after 4-week test: 49.5%
[1]; Table 3a, propyl gallate 8% by wt., dispersion
  Retention Active ingredient content after 4-week test: 55.9%
[1]; Table 3a, propyl gallate 8.5% by wt., dispersion
  Retention Active ingredient content after 4-week test: 51.9%
[1]; Table 3a, propyl gallate 9% by wt., dispersion
  Retention Active ingredient content after 4-week test: 57.4%
[1]; Table 3a, propyl gallate 10% by wt., dispersion
  Retention Active ingredient content after 4-week test: 19.6%
[1]; [4]
  Retention Active ingredient content after 4-week test: 21.3%
[1]; [5]
  Retention Active ingredient content after 4-week test: 67.5%
[1]; Table 5c, propyl gallate 0% by wt., mixed tocopherol 4% by wt.
  Retention Canthaxanthin after 4-week test: 10.8%
[1]; Table 5c, propyl gallate 4% by wt., mixed tocopherol 0% by wt.
  Retention Canthaxanthin after 4-week test: 39.1%
[1]; Table 5c, propyl gallate 4% by wt., mixed tocopherol 4% by wt.
  Retention Canthaxanthin after 4-week test: 66.5%
[1]; Table 5d, 4% by wt. of ethoxyquin
  Retention Canthaxanthin after 4-week test: 79.3%
[1]; Table 5d, propyl gallate 0% by wt., BHT 4% by wt.
  Retention Canthaxanthin after 4-week test: 56.1% and 65.5% and 67.9%
[1]; Table 5d, propyl gallate 4% by wt., BHT 0% by wt.
  Retention Canthaxanthin after 4-week test: 61.2%
[1]; Table 5d, propyl gallate 4% by wt., BHT 4% by wt.
  Retention Canthaxanthin after 4-week test: 82.3%
[1]; propyl gallate 4% by wt. added to dispersion in solid form without pre-dissolution
  Retention Active ingredient content after 4-week test: 47.2% and 44.9%
[1]; propyl gallate 4% by wt. added to dispersion, dissolved in water pH 7
  Retention Active ingredient content after 4-week test: 46% and 49.4% and 47.8%
[1]; propyl gallate 4% by wt. added to dispersion, pH of sprayed dispersion 4.5
  Retention (active constituent after 4 weeks in the test): 42.2%
[1]; propyl gallate 4% by wt. added to dispersion, pH of sprayed dispersion 6
  Retention (active constituent after 4 weeks in the test): 39.1%
[1]; propyl gallate 4% by wt. added to dispersion, pH of sprayed dispersion 7
  Retention (active constituent after 4 weeks in the test): 47.8%
[1]; propyl gallate 4% by wt. added to dispersion, pH of sprayed dispersion 8
  Retention (active constituent after 4 weeks in the test): 49.4%
[1]; propyl gallate 4% by wt. added to dispersion, pH of sprayed dispersion 9
  Retention (active constituent after 4 weeks in the test): 28.2%
[1]; propyl gallate 4% by wt. added to dispersion, pH of sprayed dispersion 10
  Retention (active constituent after 4 weeks in the test): 36.4%
[1]; propyl gallate 4% by wt. added to dispersion, pH of sprayed dispersion 11
  Retention (active constituent after 4 weeks in the test): 14.7%
[1]; propyl gallate 4% by wt. in colloid phase, pH of the colloid phase 8.5-9.5
  Retention Active ingredient content after 4-week test: 13.4%
[1]; propyl gallate 4% by wt. in colloid phase, pH preadjustment to 7, then adjustment to pH 8.5 at maximum
  Retention Active ingredient content after 4-week test: 44.1%
[3]; [6]
  particle size: 290 nm
  polydispersity index PDI: 0.180
[3]; [7]
  particle size: 280 nm
  polydispersity index PDI: 0.185

## CC1=C(/C=C/C(C)=C/C=C/C(C)=C/C=C/C=C(C)/C=C/C=C(C)/C=C/C2=C(C)CCCC2(C)C)C(C)(C)CCC1 [β-carotene]
[1]; Table 3d, ethoxyquin 4% by wt., dispersion
  Retention Active ingredient content after 4-week test: 22.2%
[1]; Table 3d, propyl gallate 4% by wt., dispersion
  Retention Active ingredient content after 4-week test: 30.3%
[2]
  particle size: 262 nm
  polydispersity index PDI: 0.268
